Test results published in US9573956B2, “Compounds as dual inhibitors of phosphodiesterases and histone deacetylases” (FUNDACIÓN PARA LA INVESTIGACIÓN MÉDICA APLICADA, priority 2013, dated 2017).

What was measured:
HDAC1 = HDAC1 (Homo sapiens, UniProt Q13547); assay: HDAC enzyme activity assay (fluorogenic substrate), HDAC1; format: biochemical; conditions: recombinant enzyme; read-out: HDAC1 inhibition (IC50)
PDE5A = target: T1, PDE5A (Homo sapiens, UniProt O76074); assay: PDE enzyme activity assay (HTRF cGMP), PDE5A; format: biochemical; conditions: recombinant enzyme; read-out: PDE5A1 inhibition (IC50)
T1 construct: they are full-length with N-terminal GST tag; GST (N); purchased BPS Biosciences 60050; host or cells: baculovirus infected Sf9 cells

HDAC1, sequence (Q13547 whole entry): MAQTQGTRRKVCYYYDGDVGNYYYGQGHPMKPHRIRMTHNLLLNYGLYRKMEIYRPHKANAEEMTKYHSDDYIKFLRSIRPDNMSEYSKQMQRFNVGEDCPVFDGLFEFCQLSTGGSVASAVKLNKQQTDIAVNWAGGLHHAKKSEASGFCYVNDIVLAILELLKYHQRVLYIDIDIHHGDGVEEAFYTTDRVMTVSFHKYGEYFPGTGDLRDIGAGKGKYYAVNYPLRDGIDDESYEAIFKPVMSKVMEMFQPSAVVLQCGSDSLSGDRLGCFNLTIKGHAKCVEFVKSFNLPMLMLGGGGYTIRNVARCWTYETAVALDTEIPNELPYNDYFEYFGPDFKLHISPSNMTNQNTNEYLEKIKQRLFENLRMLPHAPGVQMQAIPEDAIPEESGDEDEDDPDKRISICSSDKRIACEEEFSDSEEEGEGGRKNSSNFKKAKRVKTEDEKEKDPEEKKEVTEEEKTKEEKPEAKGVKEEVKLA

| SMILES | IC50 (HDAC1) [nM] | IC50 (PDE5A) [nM] |
| --- | --- | --- |
| CCCc1nn(C)c2c(=O)[nH]c(-c3cc(S(=O)(=O)N4CCN(C)CC4)ccc3OCC)nc12 [Sildenafil, reference compound] | > 10000 | – |
| O=C(/C=C/c1ccc(N2CC(=O)N3[C@H](c4ccc5c(c4)OCO5)c4[nH]c5ccccc5c4C[C@@H]3C2=O)cc1)NO [Example 4-01, (E)-N-Hydroxy-4-[6-(1,3-benzodioxol-5-yl)-2,3,6,7,12,12a-hexahydropyrazino[1′,2′:1,6]pyrido[3,4-b]indole-1,4-dion-2-yl]phenylprop-2-enamide] | > 10000 | 10 to 1000 |
| CCCc1nn(C)c2c(=O)[nH]c(-c3cc(OCC4CCN(c5ncc(C(=O)NO)cn5)CC4)ccc3OCC)nc12 [Example 1-11, N-Hydroxy-2-(4-[3-(6,7-dihydro-1-methyl-7-oxo-3-propyl-1H-pyrazolo[4,3-d]pyrimidin-5-yl)-4-ethoxyphenoxymethyl]-piperidin-1-yl)pyrimidine-5-carboxamide] | 10 to 1000 | 1000 to 10000 |
| CCCc1nc(C)c2c(=O)[nH]c(-c3cc(S(=O)(=O)N4CCN(Cc5ccc(/C=C/C(=O)NO)cc5)CC4)ccc3OCC)nn12 [Example 2-01, (E)-3-[4-[[4-[4-Ethoxy-3-(5-methyl-4-oxo-7-propyl-3H-imidazo[5,1-f][1,2,4]triazin-2-yl)phenyl]sulfonylpiperazin-1-yl]methyl]phenyl]prop-2-enehydroxamic acid] | 1000 to 10000 | < 10 |
| O=C(/C=C/c1ccc(CN2CCC(N3CC(=O)N4[C@H](c5ccc6c(c5)OCO6)c5[nH]c6ccccc6c5C[C@@H]4C3=O)CC2)cc1)NO [Example 4-04] | 10 to 1000 | 10 to 1000 |

More lines, now with the values ahead:

| IC50 (HDAC1) [nM] | IC50 (PDE5A) [nM] | SMILES |
| --- | --- | --- |
| 10 to 1000 | 10 to 1000 | O=C(NO)c1cnc(N2CCC(N3CC(=O)N4C(Cc5c([nH]c6ccccc56)C4c4ccc5c(c4)OCO5)C3=O)CC2)nc1 (racemic) [Example 4-03, N-Hydroxy-2-(4-[6-(1,3-benzodioxol-5-yl)-2,3,6,7,12,12a-hexahydropyrazino[1′,2′:1,6]pyrido[3,4-b]indole-1,4-dion-2-yl]piperidin-1-yl)pyrimidine-5-carboxamide] |
| > 10000 | 10 to 1000 | O=C(CCCN1CCC(N2CC(=O)N3[C@H](c4ccc5c(c4)OCO5)c4[nH]c5ccccc5c4C[C@@H]3C2=O)CC1)NO [Example 4-02] |
